In patent US8883856B2, “Compositions and methods for the treatment of inflammatory diseases using topoisomerase inhibitors” (priority 2000, dated 2014):
Where two headings read alike, the source gives them in different places.

Tests used:
surgical adhesions = format: in vivo; details: for mean surgical adhesion score: 2.5% loaded crosslinked HA film, 8 days, scale 0 (no adhesions) to 3 (inseparable without cutting), control film mean 2.33; for surgical adhesion formation, in words: drug-loaded crosslinked HA films (camptothecin 2.5%, doxorubicin 2.5%, beta-lapachone 5%, curcumin 10%)
Experimental: The rat caecal-sidewall adhesion model was used to test efficacy of crosslinked hyaluroinc acid (HA) polymeric films loaded with one of the following compounds; camptothecin 2.5% loading (w/w to polymer), curcumin 10%, doxorubicin 2.5%, beta-lapachone at 5% or unloaded-no-drug control. Films of 2-2.5 cm^2 were prepared with each drug by the method described in example 10. ETO sterilized, and divided in half at the time of surgical implantation. Sham surgeries omitted the application of HA film as separate controls.
Sprague Dawley rats, 15 male and 15 female, weighing 250-400 g were anaesthetized with Halothane (5%) and maintained, by nose cone, on 1.5-2% Halothane. Surgeries were conducted under sterile conditions. The abdomen was shaved, scrubbed with an antiseptic wash, and opened at the linea alba with a 3 cm incision. A region of the abdominal cavity immediately opposite the large bowel was isolated with bowel clamps, and a #11 scalpel blade was used to score a section of the transversus muscle, describing a rectangle 1×1.5 cm. The muscle was stripped from the peritoneal sidewall with forceps, and minor bleeding was arrested by tamponade. The large bowel was then externalized with sterile swabs, and caecal contents evacuated into the large bowel. Both surfaces of the caecum were stroked, 45 times on each side, with a #10 scalpel blade to produce erythema and punctated bleeding. Each stroke spanned the caecal diameter (approximately 1 cm), and extended along 1.5 cm of the caecal extremity. In only one case did this abrasion procedure cause sustained bleeding requiring ligation. Following 90 blade strokes, the integrity of the tissue was confirmed, and caecum and large bowel were replaced in the pelvis.
The film was laid over the rectangular sidewall abrasion (except in the case of sham surgeries), covering the area of damaged tissue. The abraded caecum, relocated in its previous orientation, was than overlaid such that the entire sidewall wound and film were covered by it. Four tacking sutures were placed at the outer extremities of the abraded area of the caecum securing it to the intact peritoneal sidewall immediately outside the rectangular wound area. The abdomen was closed in two layers, and antibiotics administered intramuscularly before the animal regained consciousness.
. Adhesions over, and adjacent to the caecum were rated according to the following findings: 0: No adhesions connecting caecum to sidewall wound; 1: Filmy or stranded were separable by blunt dissection; 2: Cohesive adhesions attaching the caecum to the sidewall were separable by aggressive blunt dissection; 3: Adhesions inseparable without cutting, or without tearing/damaging caecum. Fractions were assigned where a variety of ratings seemed applicable.

proteoglycan gene = test: Proteoglycan gene expression in chondrocytes; format: cell-based, calf
Excerpt: This assay measures the levels of RNA for the two metalloproteinases, collagenase and stromelysin. Over-expression of these genes results in excessive synthesis and secretion of these two enzymes from articular chondrocytes and may represent part of the pathophysiology of rheumatoid arthritis. Agents that inhibit over-expression of collagenase and stromelysin can be antiarthritc agents. […] Proteoglycan gene expression is part of the normal physiology of chondrocytes.
Primary chondrocyte culture was freshly isolated from calf cartilage. The cells were plated (at 2.5×10^6/mL) in 100×20 mm culture dishes and incubated in Ham's F12 medium containing 5% fetal bovine serum (FBS) overnight at 37° C. The cells were starved with serum-free medium overnight. The cells were pretreated with camptothecin at concentrations of 10^−6 M, 10^−7 M and 10^−8 M for 6 hours. Then IL-1 (20 ng/mL) was added to each plate and the plates were incubated for an additional 18 hours. Total RNA was isolated by the acidified guanidine isothiocyanate method and subjected to electrophoresis on a denatured gel. Denatured RNA samples (15 ug) were analyzed by gel electrophoresis in a 1% denaturing gel, transferred to a nylon membrane, and hybridized respectively with the ^32P-labelled collagenase cDNA probe, ^32P-labelled stromelycin cDNA probe, ^32P-labelled proteoglycan cDNA probe and ^32P-labelled glyceraldehyde phosphate dehydrogenase (PAGDH) cDNA. The PAGDH levels acted as an internal standard to ensure roughly equal loading. The experimental results on X-ray films were scanned and analyzed with HP ScanJet.

rat carotid artery = format: in vivo; details: for inhibition of intimal hyperplasia / inhibition of luminal narrowing: perivascular
Excerpt: In this model of restenosis, a balloon catheter is used to induce damage to the lumen of carotid arteries in rats. This damage causes extensive intimal hyperplasia and luminal narrowing, characteristic of restenosis. To determine the effect of drugs as antirestenosis agents, a polymeric dosage form of a drug is applied to the outside of the artery (perivascular application).
Wistar rats weighing 400 g to 500 g were anesthetized with halothane. A vertical incision was made over the trachea and the left carotid artery was exposed. Two ligatures were placed around the external carotid artery and an arteriotomy was made between them. A 2 French Fogarty balloon catheter was introduced into the external carotid artery and pushed into the left common carotid artery and the balloon was inflated with saline. The catheter was passed up and down the entire length of the carotid artery three times to stretch the vessel and denude the endothelium. The catheter was removed and the ligatures were tied off on the external carotid artery. […] The wound was then closed and the animals recovered. After 14 days, the rats were sacrificed and pressure perfused at 100 mmHg with 10% buffered formaldehyde. Both carotid arteries were harvested and processed for histology. Serial cross-sections were cut every 2 mm within and outside the implant in the injured left carotid artery and at corresponding levels in the control right carotid artery. Sections were stained with hematoxylin-and-eosin and Movat's stains and digitized for computer assisted morphometric analysis to quantify luminal narrowing and intimal hyperplasia.

| Compound | toxicity of drug-loaded hyaluronic acid films (surgical adhesions; rat, in vivo) | proteoglycan expression (proteoglycan gene) | necrosis or toxicity after perivascular application (rat carotid artery; rat, in vivo) | mean surgical adhesion score (surgical adhesions) | surgical adhesion formation, in words (surgical adhesions; rats) | further results |
| --- | --- | --- | --- | --- | --- | --- |
| CC1(C)CCC2=C(O1)c1ccccc1C(=O)C2=O [beta-lapachone] | did not induce any toxic side effects | without excessive inhibition | – | – | – | – |
| COc1cccc2c1C(=O)c1c(O)c3c(c(O)c1C2=O)C[C@@](O)(C(=O)CO)C[C@@H]3O[C@H]1C[C@H](N)[C@H](O)[C@H](C)O1 [doxorubicin] | did not induce any toxic side effects | – | did not induce any necrosis or toxicity in surrounding tissue | 1.24 | inhibition of adhesion formation occurs | inhibition of intimal hyperplasia (rat carotid artery; 2% loading (w/w to EVA) film): completely inhibited; inhibition of luminal narrowing (rat carotid artery; 2% loading (w/w to EVA) film): completely inhibited; surgical adhesion formation, in words (surgical adhesions; rats, listed as dodxorubicin): major inhibition of surgical adhesion formation |
| COc1cc([C@@H]2c3cc4c(cc3[C@@H](O[C@@H]3O[C@@H]5CO[C@@H](C)O[C@H]5[C@H](O)[C@H]3O)[C@H]3COC(=O)[C@H]23)OCO4)cc(OC)c1O [etoposide] | did not induce any toxic side effects | – | did not induce any necrosis or toxicity in surrounding tissue | – | inhibition of adhesion formation occurs | inhibition of intimal hyperplasia (rat carotid artery; both 1% and 5% loaded EVA films): approximately 75% |
| CC1=CC(=O)c2ccccc2C1=O [menadione] | – | without excessive inhibition | – | – | – | – |
| CC1=CC(=O)c2c(O)cccc2C1=O [plumbagin] | – | – | – | – | – | necrosis or toxicity after perivascular application (rat carotid artery; applied to the perivascular side of the rat carotid artery): excessive toxicities |
| CC[C@@]1(O)C(=O)OCc2c1cc1n(c2=O)Cc2cc3ccccc3nc2-1 [camptothecin] | – | – | – | 0.95 | – | inhibition of luminal narrowing (rat carotid artery; 0.2% (w/w to EVA) film): more than 50%; inhibition of intimal hyperplasia (rat carotid artery; 0.2%, 1% and 10% loaded EVA films, 14 days): partial inhibition; inhibition of intimal hyperplasia (rat carotid artery; 20% loaded EVA film, 14 days): Complete inhibition; luminal narrowing (rat carotid artery; all concentrations above 0.2% in EVA film): reduced the luminal narrowing to almost zero; toxicity of drug-loaded hyaluronic acid films (surgical adhesions; films applied to abraded surgical site, rats): no associated toxicity; proteoglycan expression (proteoglycan gene; 1×10^−7 M): without excessive inhibition |
